Results on 25 compounds are retold here after BindingDB's records for doi:10.1111/cbdd.12445 (Konkuk University, 2015).

The target in the test is Aurora kinase B (Homo sapiens, UniProt Q96GD4). Put plainly: Aurora B Kinase Assay.
Aurora kinase B, sequence (Q96GD4 whole entry): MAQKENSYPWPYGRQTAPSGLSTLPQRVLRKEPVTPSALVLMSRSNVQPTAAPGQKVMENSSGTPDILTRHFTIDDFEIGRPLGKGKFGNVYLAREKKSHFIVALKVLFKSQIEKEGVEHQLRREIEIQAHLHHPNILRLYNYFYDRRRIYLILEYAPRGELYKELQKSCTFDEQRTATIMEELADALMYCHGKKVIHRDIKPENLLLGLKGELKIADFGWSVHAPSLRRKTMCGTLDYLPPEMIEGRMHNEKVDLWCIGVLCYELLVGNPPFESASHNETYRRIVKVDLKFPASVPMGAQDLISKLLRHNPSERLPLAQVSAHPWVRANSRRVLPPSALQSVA
`O=c1c(O)c(-c2cc(O)c(O)c(O)c2)oc2cc(O)cc(O)c12`: the IC50 – broadly, the concentration that inhibits the measured activity by half – was 3.98 µM. Under `COc1cc(-c2oc3cc(O)cc(O)c3c(=O)c2O)ccc1O` stands 4.34 µM; under `O=c1c(O)c(-c2ccc(O)c(O)c2)oc2c(O)c(O)cc(O)c12`, 4.1 µM. Under `O=c1cc(-c2ccccc2)oc2cc(O)c(O)c(O)c12` stands 4.06 µM; under `O=c1c(O)c(-c2ccc(O[C@@H]3O[C@H](CO)[C@@H](O)[C@H](O)[C@H]3O)c(O)c2)oc2cc(O)cc(O)c12`, 29.4 µM; under `O=c1c(O)c(-c2ccc(O)cc2)oc2cc(O)cc(O)c12`, 4.03 µM. The same measure for `O=c1c(O)c(-c2ccc(O)cc2O)oc2cc(O)cc(O)c12` [2-(2,4-dihydroxyphenyl)-3,5,7-trihydroxychromen-4-one]: 4.71 µM; for `O=c1c(O)c(-c2ccc(O)c(O)c2)oc2cc(O)c(O)c(O)c12` [2-(3,4-dihydroxyphenyl)-3,5,6,7-tetrahydroxy-4H-chromen-4-one]: 2.62 µM.

`O=c1c(O)c(-c2ccc(O)c(O)c2)oc2c(O[C@@H]3O[C@H](CO)[C@@H](O)[C@H](O)[C@H]3O)c(O)cc(O)c12` [2-(3,4-dihydroxyphenyl)-3,5,7-trihydroxy-8-[(2S,3R,4S,5S,6R)-3,4,5-trihydroxy-6-(hydroxymethyl)oxan-2-yl]oxychromen-4-one]: half-maximal inhibition (IC50) was put at 11.1 µM. Under `O=c1c(O)c(-c2ccc(O)c(O)c2)oc2cc(O)cc(O)c12` [2-(3,4-dihydroxyphenyl)-3,5,7-trihydroxy-chromone;hydrate] stands 3.96 µM; under `O=c1c(O)c(-c2ccc(O)c(O)c2)oc2cc(O)ccc12` [2-(3,4-dihydroxyphenyl)-3,7-dihydroxy-chromen-4-one], 2.63 µM. Under `O=c1c(O[C@@H]2O[C@H](CO)[C@@H](O)[C@H](O)[C@H]2O)c(-c2ccc(O)c(O)c2)oc2cc(O)cc(O)c12` [2-(3,4-dihydroxyphenyl)-5,7-dihydroxy-3-[(2S,3R,4S,5S,6R)-3,4,5-trihydroxy-6-(hydroxymethyl)oxan-2-yl]oxychromen-4-one] stands 10.7 µM; under `O=c1cc(-c2ccc(O)c(O)c2)oc2cc(O)cc(O)c12` [2-(3,4-dihydroxyphenyl)-5,7-dihydroxy-4H-chromen-4-one], 3.88 µM; under `COc1ccc(-c2cc(=O)c3c(OC)c(OC)c(OC)cc3o2)cc1OC` [2-(3,4-dimethoxyphenyl)-5,6,7-trimethoxy-4H-chromen-4-one], 5.31 µM.

In the case of `O=c1c(O)c(-c2ccccc2O)oc2cc(O)cc(O)c12` [3,5,7-trihydroxy-2-(2-hydroxyphenyl)chromen-4-one], the IC50 worked out at 17.8 µM.

In the case of `COc1ccc(-c2oc3cc(O)cc(O)c3c(=O)c2O)cc1O` [3,5,7-trihydroxy-2-(3-hydroxy-4-methoxyphenyl)-4H-chromen-4-one], half-maximal inhibition (IC50) required 7.39 µM. Under `COc1cc(-c2oc3cc(O)ccc3c(=O)c2O)ccc1O` [3,7-dihydroxy-2-(4-hydroxy-3-methoxyphenyl)chromen-4-one] stands 2.85 µM; under `O=c1c(O)c(-c2ccccc2)oc2ccccc12` [3-hydroxy-2-phenyl-4H-chromen-4-one], 4.29 µM; under `O=c1cc(-c2ccc(O)cc2)oc2cc(O)c(O)c(O)c12` [5,6,7-trihydroxy-2-(4-hydroxyphenyl)-4H-chromen-4-one], 3.85 µM. Under `C[C@@H]1O[C@@H](Oc2c(-c3cc(O)c(O)c(O)c3)oc3cc(O)cc(O)c3c2=O)[C@H](O)[C@H](O)[C@H]1O` [5,7-dihydroxy-3-[(2S,3R,4R,5R,6S)-3,4,5-trihydroxy-6-methyloxan-2-yl]oxy-2-(3,4,5-trihydroxyphenyl)chromen-4-one] stands 3.89 µM; under `COc1cc(-c2cc(=O)c3c(O)c(OC)c(OC)c(OC)c3o2)cc(OC)c1OC` [5-hydroxy-6,7,8-trimethoxy-2-(3,4,5-trimethoxyphenyl)chromen-4-one], 42.7 µM; under `O=c1cc(-c2ccc(O)cc2)oc2cc(O[C@@H]3O[C@H](CO)[C@@H](O)[C@H](O)[C@H]3O[C@@H]3OC[C@](O)(CO)[C@H]3O)cc(O)c12` [7-[(2S,3R,4S,5S,6R)-3-[(2S,3R,4R)-3,4-dihydroxy-4-(hydroxymethyl)oxolan-2-yl]oxy-4,5-dihydroxy-6-(hydroxymethyl)oxan-2-yl]oxy-5-hydroxy-2-(4-hydroxyphenyl)chromen-4-one], 12.1 µM.

`O=C(O)[C@H]1O[C@@H](Oc2cc3oc(-c4ccccc4)cc(=O)c3c(O)c2O)[C@H](O)[C@@H](O)[C@@H]1O` [(2S,3S,4S,5R,6S)-6-(5,6-dihydroxy-4-oxo-2-phenyl-4H-chromen-7-yloxy)-3,4,5-trihydroxy-tetrahydro-2H-pyran-2-carboxylic acid]: half-maximal inhibition (IC50) required 12.2 µM. Under `O=c1cc(-c2ccc(O)cc2)oc2cc(O)cc(O)c12` [Naringenin, 18] stands 3.96 µM; under `O=c1c(O)c(-c2ccccc2)oc2cc(O)cc(O)c12` [norizalpinin], 9.8 µM.
